Structures can show the parent of a compound that is named as a salt.
How the values were obtained:
crypts from Nod1 KO mice = test: Organoid formation from crypts of Nod1 KO mice upon MAMP stimulation; type: cell-based
Description: FIG. 4 illustrates the fold change in number of organoids, formed from extracted crypts, from mice knocked out for Nod1 or Nod2 genes, upon different MAMPs stimulation conditions. By definition, the fold change of the untreated organoids is set to 1, and the fold changes upon the various stimulation conditions applied are by reference to the non-stimulated organoids.
Intestinal crypts were obtained following a protocol already described (Sato et al., 2009). After isolation small intestines were isolated, flushed with cold PBS followed by 0.3% bleach and again PBS, opened longitudinally and the villi were removed. […] After severals vigourous shakings the crypts, released in the supernatant, were passed through a cell strainer 70 μm (BD Falcon), spun down at 800 rpm, resuspended in DMEM and counted. […]

intestinal crypts [1] = test: Organoid formation from isolated intestinal crypts upon MAMP stimulation; type: cell-based, mice; settings: wt crypts; 10 μg/ml
Procedure: Crypts were stimulated with soluble sonicated peptidoglycan (PGN), muramyl-dipeptide (MDP), muramyl-tetrapeptide (Tetra-dap), Escherichia coli lipopolysaccharide (LPS) (each at 10 μg/ml), 10 ng/ml flagellin (Fla), 500 ng/ml synthetic lipoprotein (Pam3CSK), or 1 μM unmethylated CpG dinucleotides (CpG). The average number of non-stimulated organoids (control) is around 50, and the fold change value of the control is fixed to 1. The fold change upon the various MAMPs applied is thus by reference to non-stimulated organoids (Ctrl).
Intestinal crypts were obtained following a protocol already described (Sato et al., 2009). After isolation small intestines were isolated, flushed with cold PBS followed by 0.3% bleach and again PBS, opened longitudinally and the villi were removed. The tissues were cutted in small pieces, washed in 5 mM PBS/EDTA for 5 min, and subsequently incubated in fresh 5 mM PBS/EDTA for 30 min on ice. After severals vigourous shakings the crypts, released in the supernatant, were passed through a cell strainer 70 μm (BD Falcon), spun down at 800 rpm, resuspended in DMEM and counted. The volume corresponding to 500 crypts was distributed in two tubes per condition, and spun down again. […] The crypts were embedded in 50 μl of growth factor reduced matrigel (BD Biosciences) in a 24-well plates, incubate at 37° C. […]

intestinal crypts [2] = test: Caspase-3 positive crypts in doxorubicin-treated mice; type: in vivo; settings: intraperitoneal, 6 hours
Procedure: FIG. 11 depicts the percentage of caspase-3 positive crypts in different conditions. The results are obtained after 6 hours.
Line 1: WT, non-treated mice. Line 2: Nod2 KO mice, non-treated. Line 3: WT mice, treated with doxorubicin during 6 hours. Line 4: Nod2 KO mice, treated with doxorubicin during 6 hours. It can be observed that the absence of Nod2 induced more death in the crypts.
B6.129P2-Lgr5^tm1(cre/ESR1)Cle/mice (Lgr5-EGFP) (Barker et al., 2007) were purchased from The Jackson Laboratories. Card4/Nod1 (Nod1 KO) mice were generated by Millenium pharmaceuticals Boston. Card15/Nod2 deficient C57BL/6J (Nod2 KO) (Barreau et al., 2007) were provided by J.-P. Hugot (Hôpital Robert Debré, Paris, France). All mice were kept in specific pathogen-free conditions. When indicated the mice were injected intraperitoneally with 200 μg of EdU (Invitrogen) 2 hrs prior to sacrifice or with 10 mg/kg doxorubicin hydrochloride (Sigma) and sacrificed at indicated time points. […]
Doxorubicin in vivo. […] The percentage of crypts presenting at least one caspase3-positve cell was counted. […] To evaluate if upon doxorubicin treatment the proliferation index was affected, the number of EdU positive cells per crypts was counted and the percentage versus the total number of cells in the crypts was calculated.

intestinal crypts [3] = test: Proliferation index and regenerative crypts after doxorubicin injection; type: in vivo, mice; settings: for Percentage of regenerative crypts / Relative size of crypts: 72 h after injection; for Relative size of crypts: crypt width×crypt height
Procedure: FIG. 13 illustrates the percentage of EdU-positive cells per crypt, in wild-type or Nod2 KO mice, after 2 hours of EdU (5-ethynyl-2-deoxyuridine) treatment.
For the analysis of proliferation in the tissue, 10 mg/kg EdU were injected IP and the animals were sacrificed after 2 h. The Click-iT® EdU Alexa Fluor® 488 Imaging Kit was used on paraffin slides that were processed according to the manufacturer's instructions.
The proliferation index was calculated as a percentage of EdU positive cells over the total number of cells in each crypt. Data from five mice each group were obtained and at least 50 crypts per section were examined for all histological parameters. A regenerative crypt was defined as a crypt containing more than 10 EdU positive cells per crypt. Relative crypt size was determined as crypt width×crypt height.
In order to evaluate the capacity of stem cells to survive and repair the damaged tissue upon doxorubicin-treatment, the inventors used a modified clonogenic microcolony assay (Tustison et al). At 72 h wt mice presented higher percentage of regenerative/surviving crypts than in Nod2 KO mice and this was associated with a bigger size of the crypts (Table 1).

[4] = tested on: intestinal stem cells in crypts; test: Organoid formation under induced stress (doxorubicin or H2O2); type: cell-based, mice; settings: 1 μM; after 4 days of treatment
Procedure: By definition, the fold change of the untreated organoids is set to 1 in the absence of any additional stress, and the fold changes upon the various stimulation or stress conditions applied are by reference to the non-stimulated non-stressed organoids.
Doxorubicin (1 μM) or H2O2 (200 μM) are added during the embedding of the crypts in the matrigel.
Intestinal crypts were obtained following a protocol already described (Sato et al., 2009). After isolation small intestines were isolated, flushed with cold PBS followed by 0.3% bleach and again PBS, opened longitudinally and the villi were removed. The tissues were cutted in small pieces, washed in 5 mM PBS/EDTA for 5 min, and subsequently incubated in fresh 5 mM PBS/EDTA for 30 min on ice. After severals vigourous shakings the crypts, released in the supernatant, were passed through a cell strainer 70 μm (BD Falcon), spun down at 800 rpm, resuspended in DMEM and counted. The volume corresponding to 500 crypts was distributed in two tubes per condition, and spun down again. […] The crypts were embedded in 50 μl of growth factor reduced matrigel (BD Biosciences) in a 24-well plates, incubate at 37° C. 20 min and overload with 500 μl of crypts medium (CM) as described previously (Sato et al 2009). […]

[5] = tested on: wt stem cells (Lgr5-EGFP); test: Single cells stimulation: organoids from sorted wt stem cells; type: cell-based, mice; settings: wt stem cells alone; 500 cells per well
Procedure: FIG. 8 depicts the average number of organoids formed per well, depending on the cell types seeded in the well, without stimulation, or under stimulation with MDP. 500 cells were seeded per well in a 96-wells-plate.
Isolated crypts from Lgr5-EGFP mice or Nod2KO mice were incubated in HBSS w/o Ca^+2 and Mg^2+ supplemented with 0.3 U/ml Dispase (BD Biosciences), 0.8 U/ml DNase (Sigma) and 10 μM Y-27632 (Sigma) for 30 min at 37° C.
Dissociated cells were washed with 1% PBS/BSA and stained with CD24-APC antibody (clone M1/69 BioLegend) and EpCam Pe-Cy7 (clone G8.8 BioLegend) for 20 min at 4° C., resuspended in crypts medium supplemented with 1 μM N-acetyl-L-cystein, 10 μM Jag-1 (Anaspec) and 10 μM Y-27632 (single cells medium-SCM) and filtered with a 20 μm mesh and analyzed with MoFlo legacy (Beckman Coulter).
Singlets of viable epithelial cells were gated by negative staining for propidium iodide and positive staining for EpCam. The stem cells and Paneth cells were isolated respectively as GFP^hi+ population, and GFP^−CD24^hi+SSC^hi population.
Stem cells and Paneth cells derived from Lgr5-EGFP or Nod2KO mice were cultured alone or in different combinations. 500 cells from each condition were re-suspended in 100 μl of single cells medium with or without MAMPs and, when indicated, with 100 ng/ml wnt3 (R&D), seeded in 96-wells round-bottom plates and incubated on ice for 15 min. […]

Molecule: CC(=O)NC1C(O)OC(CO)C(O)C1OC(C)C(=O)NC(C)C(=O)NC(CCC(=O)O)C(N)=O (stereo not shown) [MDP-ctrl]
- number of organoids compared with control (in words) (crypts from Nod1 KO mice): No difference was observed

Molecule: CC(=O)NC1C(O)OC(CO)C(O)C1OC(C)C(=O)NC(C)C(=O)NC(CCC(=O)NC(CCCC(N)C(=O)O)C(=O)NC(C)C(=O)O)C(=O)O (stereo not shown) [Tetra-dap, MurNAc-Tetra(DAP)]
- number of organoids compared with non-stimulated (in words) (intestinal crypts [1]): did not observe any differences and not

Molecule: COc1cccc2c1C(=O)c1c(O)c3c(c(O)c1C2=O)C[C@@](O)(C(=O)CO)C[C@@H]3O[C@H]1C[C@H](N)[C@H](O)[C@H](C)O1 [doxorubicin, doxorubicin hydrochloride]
- percentage of crypts with apoptotic (caspase-3 positive) cells (intestinal crypts [2]; Nod2 KO mice): 54%
- percentage of crypts with apoptotic (caspase-3 positive) cells (intestinal crypts [2]; wt mice): 30%
- Percentage of regenerative crypts (intestinal crypts [3]; Nod2 KO mice): 33.9 ± 9.4 %
- Relative size of crypts (intestinal crypts [3]; Nod2 KO mice): 2538 ± 180
- proliferation index in crypts (in words) (intestinal crypts [3]; Nod2 KO mice, following days): low rate of proliferation
- proliferation index in crypts (in words) (intestinal crypts [3]; both wt and Nod2 KO mice, 6h until 24 h after injection): decrease in the rate of proliferation
- proliferation index in crypts (in words) (intestinal crypts [3]; wt mice, 48 h until 72 h): reaching almost the same rate observed in the non-treated mice
- Percentage of regenerative crypts (intestinal crypts [3]; wt mice): 59.9 ± 6.4%
- Relative size of crypts (intestinal crypts [3]; wt mice): 3231 ± 105
- less organoids after treatment [4]: 50%

B1: wnt ligand: 100 ng/ml wnt3 (R&D) added to stem cells (protein, UniProt P56703 22-355, looked up)
Proto-oncogene Wnt-3: GYPIWWSLALGQQYTSLGSQPLLCGSIPGLVPKQLRFCRNYIEIMPSVAEGVKLGIQECQHQFRGRRWNCTTIDDSLAIFGPVLDKATRESAFVHAIASAGVAFAVTRSCAEGTSTICGCDSHHKGPPGEGWKWGGCSEDADFGVLVSREFADARENRPDARSAMNKHNNEAGRTTILDHMHLKCKCHGLSGSCEVKTCWWAQPDFRAIGDFLKDKYDSASEMVVEKHRESRGWVETLRAKYSLFKPPTERDLVYYENSPNFCEPNPETGSFGTRDRTCNVTSHGIDGCDLLCCGRGHNTRTEKRKEKCHCIFHWCCYVSCQECIRIYDVHTCK
- average of organoids per well [5]: around 3 organoids per well
